Data published in US10731187B2, “Recombinant strain producing O-aminobenzoate and fermentative production of aniline from renewable resources via 2-aminobenzoic acid” (Covestro Deutschland AG, priority 2014, dated 2020).
Values after ≈ are worked out from the molar mass of the structure shown.

What was measured:
[1] = tested on: Corynebacterium glutamicum; test: Shake flask growth (OD600) with supplementation of toxic substances; format: cell-based, Corynebacterium glutamicum DSM 20300 (=ATCC 13032)
Description: Several strains commonly used industrial biotechnology were investigated regarding their natural tolerance towards oAB and to organic solvents in question for later product extraction (e.g. 1-dodecanol or octanol). Furthermore, the influence of the used pH value was investigated. It was known from previous experiments that at least for E. coli the toxicity of aromatic compounds depends strongly on the pH value, probably because protonated acids can much more efficiently penetrate the cell membrane and accordingly their toxicity rises severely. The extraction of oAB in an organic phase is supposed to work best at low pH values, close to the isoelectric point of oAB. The most relevant host strains considered were: Escherichia coli K12, Corynebacterium glutamicum DSM 20300 (=ATCC 13032), Pseudomonas putida KT2440, Bacillus subtilis subsp. 168, Saccharomyces cerevisiae DSM 70449, and Pichia pastoris X33 (DSM 70382).
To investigate the chosen strains towards the mentioned characteristics shake flasks and small scale fermentation experiments were performed and the organisms were supplemented with the toxic substances (aminobenzoates, solvents) at differed concentrations, different pH values, and the behaviour of the strains was studied.
The organisms (commercially obtained from ordered from the DSMZ, German collection of Microorganisms and cell cultures, Braunschweig) were firstly cultivated in shake flasks and in each of them in suiting, published standard minimal medium in order to characterize their growth under standard cultivation conditions (C. glutamicum: Preculture: BHI medium (37 g/L; Brain-Heart-Infusion; Becton Dickenson and Company, Heidelberg); Main culture pH 7: CGXII-MOPS medium (42 g/L MOPS buffer, 20 g/L (NH4)2SO4, 5 g/L urea (Fisher Scientific, Schwerte), 1 g/L KH2PO4, 1 g/L K2HPO4, 0.25 g/L MgSO4.7H2O (Merck, Darmstadt), 0.01 g/L CaCl2, and 10 g/L glucose (autoclaved separately). The pH was adjusted to 7 with 5 mol/L sodium hydroxide solution. […]

[2] = Solubility of oAB in fermentation broth slurry; format: physicochemical; details: fermentation broth of Corynebacterium glutamicum; room temperature, pH 4.5, fermentation broth
Procedure: An industrial sugar source was used for fermentation of Corynebacterium glutamicum. 100 ml of the broth with a content of 21.5 g/L glucose, 3.7 g/L lactate was mixed with 10 g anthranilic acid in a 250 ml laboratory reactor. […] Afterwards 9.12 g NaOH (32%) were added in 4 portions until a solution was present. […] Following […] HCl (37%) were added within 1 hour. By dosing of HCl first nucleation took place as from a pH-value of 5.8. The number of crystals increased during dosing. […] Afterwards the slurry was stirred for 1 hour. Finally the slurry was filtered.

[3] = Solubility of oAB in 1-dodecanol (solid liquid equilibrium); format: physicochemical
Procedure: The solubility of oAB in dodecanol was tested with increasing temperature.

Structure (SMILES): Nc1ccccc1C(=O)O [oAB, 2-aminobenzoic acid]
- growth (OD600) ([1]; 3 g/L oAB, pH 7 (MOPS), 100-mL shake flask, 25 h): not inhibited
- growth inhibition ([1]; 5 g/L, pH 5 and pH 7, shake flask): No growth inhibition
- tolerance for o-aminobenzoate ([1]; Corynebacterium glutamicum ATCC13032): high tolerance
- solubility [2]: ~4500 µg/mL (≈ 32.8 mM)
- solubility in 1-dodecanol ([3]; 3 wt %, room temperature): perfectly soluble
- solubility of oAB in 1-dodecanol (concentration) ([3]; 40 ° C.): 4.88 wt %
- solubility of oAB in 1-dodecanol (concentration) ([3]; 68 ° C.): 13.10 wt %
- solubility of oAB in 1-dodecanol (concentration) ([3]; 93 ° C.): 23.05 wt %
- solubility of oAB in 1-dodecanol (concentration) ([3]; 111 ° C.): 35.34 wt %
- solubility of oAB in 1-dodecanol (concentration) ([3]; 119 ° C.): 44.22 wt %
- solubility of oAB in 1-dodecanol (concentration) ([3]; 123 ° C.): 50.93 wt %
